Data as given in US11186873B2, “Combination method for treating cancer by targeting immunoglobulin superfamily member 1 (IGSF1) and mesenchymal-epithelial transition factor (MET)” (WELLMARKER BIO CO., LTD., priority 2014, dated 2021).
Blank lines part the entries; values can stand above or below the molecule they belong to.

Legend:
[1] = tested on: human gastric cancer cell lines SNU638 and MKN45; assay: Wound healing / migration assay after siRNA, gastric cancer cells; type: cell-based; settings: siRNA method
Experimental: (§1) HGF-independent human gastric cancer cell lines MKN45 and SNU638 and lung cancer cell line HCC827 were transfected with IGSF1 siRNA or MET siRNA for 48 hours. Plate inserts (BD Biosciences) of […] pore size were placed in a 24-well plate, and each 100 μl of matrigel (BD Biosciences) was seeded on each at a concentration of 200 μg/ml and incubated in a CO2 incubator for 30 minutes. 2.5×10^4 cells transfected with MET or IGSF1 siRNA were placed in the insert plate in a total volume of 100 μl in serum-free media. 400 μl of growth media (RPMI1640+10% FBS) were seeded on the bottom plate and cultured in a CO2 incubator for 24 hours. After 24 hours, the insert plate was washed with PBS, and the remaining cells were wiped with a cotton swab and fixed in 10% formalin for 20 minutes. After washing with purified water, the cells were stained with 0.01% crystal violet solution for 20 minutes and washed with warm water, and then the number of migrated cells was counted. […] The number of cells migrated through the insert plate in the control and the gastric cancer and lung cancer cell lines transfected with MET or IGSF1 siRNA was counted and verified.
(§2) The present inventors inhibited the expression of IGSF1 by the siRNA method in human gastric cancer cell lines SNU638 and MKN45 and then analyzed the degree of the inhibition of invasion and migration by invasion chamber assay and wound healing assay.

[2] = tested on: human gastric cancer cell lines SNU638 and MKN45; assay: Invasion chamber assay after siRNA, gastric cancer cells; type: cell-based; settings: siRNA method
Experimental: as §1, §2

[3] = tested on: human lung cancer cell lines HCC827 and HCC194; assay: Cell growth (cell counting) after shRNA, lung cancer cells; type: cell-based; settings: number of cells at 24 hours and 48 hours, shRNA method
Excerpt: The present inventors inhibited the expression of IGSF1 or the expression of MET by the shRNA method in human lung cancer cell lines HCC827 and HCC194 and then determined the inhibition of cell growth.

[4] = tested on: human gastric cancer cell lines SNU638 and MKN45; assay: Colony forming assay after inhibition of IGSF1 or MET; type: cell-based
Experimental: Moreover, the expression of IGSF1 or MET in human gastric cancer cell lines SNU638 and MKN45 was inhibited, and then the degree of the inhibition of cell growth was determined by colony forming assay.

MET [5] = assay: Real-time PCR of MET expression after shRNA inhibition of IGSF1; type: cell-based, human; settings: RNA level, SNU638 and MKN45, inhibition of IGSF1 by shRNA method
Excerpt: (§3) The present inventors inhibited the expression of IGSF1 or MET by the shRNA method in human gastric cancer cell lines SNU638 and MKN45 and then determined the changes in expression of each gene by real-time PCR.

phosphorylation of MET = assay: Western blot of MET phosphorylation after inhibiting IGSF1 by siRNA/shRNA; type: cell-based, human; settings: AGS, MKN45, SNU638 and HCC827, concentration-dependent manner, FIG. 2E
Experimental: (§4) To perform Western blot analysis, proteins isolated from the respective cells were separated by SDS-PAGE and transferred to membranes (PolyScreen membranes; New England Nuclear, Boston, Mass., USA). The proteins were incubated with various antibodies (anti-phospho MET, E-cadherin (Cell signaling Technology, Beverly, Mass., USA), anti-MET, anti-r-tubulin (Santa Cruz Biotechnology, Santa Cruz, Calif., USA), anti-IGSF1 (Abnova, Jhouzih, Taipei, Taiwan)) at 4° C. for 12 hours and then washed with 1× TBS-T buffer three times for 10 minutes. The proteins were incubated with appropriate anti-rabbit-HRP or anti-mouse-HRP secondary antibody at room temperature for 2 hours and washed with 1× TBS-T buffer three times for 10 minutes, and then the expression of the proteins was detected using ECL solution (GE Healthcare Bio-Sciences Corp.). […]
(§5) To analyze the changes in MET phosphorylation by inhibition of the expression of IGSF1 as a marker for the induction of HGF-independent MET phosphorylation in human gastric cancer cell line (AGS, MKN45, SNU638) and lung cancer cell line (HCC827), the present inventors inhibited the expression of IGSF1 or MET by the siRNA method and then determined the changes in phosphorylation of the MET protein by western blot analysis.

[6] = tested on: human gastric cancer cell lines SNU638 and MKN45; assay: Cell growth (cell counting) after shRNA, gastric cancer cells; type: cell-based; settings: number of cells counted for 3 days, shRNA method
Excerpt: The present inventors inhibited the expression of IGSF1 or MET by the shRNA method in human gastric cancer cell lines SNU638 and MKN45 and then determined the inhibition of cell growth.

IGSF1 [7] = assay: Western blot of IGSF1 expression after MET shRNA; type: cell-based, human; settings: MET shRNA concentration-dependent manner, FIG. 2E
Experimental: as §4, §5

IGSF1 [8] = assay: Real-time PCR of IGSF1 expression after shRNA inhibition of MET; type: cell-based, human; settings: RNA level, SNU638 and MKN45, inhibition of MET by shRNA method
Excerpt: as §3

IGSF1 [9] = assay: Luciferase 3'UTR reporter assay in human 293 cell line, IGSF1; type: cell-based; settings: wild-type vs mutated 3'UTR luciferase plasmids
MMP9 = MMP9 expression after miRNA transfection; type: cell-based, human; settings: SNU638; lower panel of FIG. 6D
Excerpt: Furthermore, as shown in the lower panel of FIG. 6D, the transfection of gastric cancer cell line SNU638 with mir-34a or mir-34c inhibited the migration of cells and decreased the expression of MMP9.

MET [10] = assay: MET expression after miR-34a/miR-34c or antagomir transfection, gastric cancer cells; type: cell-based, human; settings: for expression of c-MET: MKN45 and SNU638, lower panel of FIG. 6B; for expression of MET: cell line SNU638, real-time PCR, upper panel of FIG. 6B
Excerpt: (§6) Moreover, as shown in the lower panel of FIG. 6B, as a result of analyzing the expression of MET and IGSF1 after transfecting miR-34a or miR-34c into human gastric cancer cell lines MKN45 and SNU638, it was observed that the expression of IGSF1 as a marker for the induction of HGF-independent MET phosphorylation and the expression of c-MET were inhibited by miR-34a or miR-34c.

[11] = tested on: gastric cancer cell lines SNU638 and MKN45; assay: Cell migration after miRNA or antagomir transfection, gastric cancer cells; type: cell-based, human; settings: for migration of cells: SNU638, lower panel of FIG. 6D; for cell migration: SNU638 and MKN45, upper panel of FIG. 6D
IGSF1 [12] = assay: IGSF1 expression after miR-34a/miR-34c or antagomir transfection, gastric cancer cells; type: cell-based, human
Excerpt: as §6

gastric cancer cell line = assay: Cell invasion after miRNA or antagomir transfection, gastric cancer cells; type: cell-based, human; settings: middle panel of FIG. 6D
Experimental: […] Plate inserts (BD Biosciences) of […] pore size were placed in a 24-well plate, and each 100 μl of matrigel (BD Biosciences) was seeded on each at a concentration of 200 μg/ml and incubated in a CO2 incubator for 30 minutes. […] 400 μl of growth media (RPMI1640+10% FBS) were seeded on the bottom plate and cultured in a CO2 incubator for 24 hours. After 24 hours, the insert plate was washed with PBS, and the remaining cells were wiped with a cotton swab and fixed in 10% formalin for 20 minutes. After washing with purified water, the cells were stained with 0.01% crystal violet solution for 20 minutes and washed with warm water, and then the number of migrated cells was counted. In the case of the migration assay, the same procedure as above was carried out without coating the insert plate. The number of cells migrated through the insert plate in the control and the gastric cancer and lung cancer cell lines transfected with MET or IGSF1 siRNA was counted and verified.

pMET = pMET expression after miRNA/antagomir transfection, lung cancer cells; type: cell-based, human; settings: lung cancer cell lines HCC827 and H1944
MET [13] = assay: Luciferase 3'UTR reporter assay in human 293 cell line, MET; type: cell-based; settings: wild-type vs mutated 3'UTR luciferase plasmids
[14] = tested on: human gastric cancer cell line SNU638; assay: Cell growth after miRNA transfection, trypan blue exclusion; type: cell-based; settings: 300 nM, compared with the control group
Experimental: Human miRNA-34a (SEQ ID NO: 1; […]) or miRNA-34c (SEQ ID NO: 2; […]) was purchased from Thermo Fisher Scientific. 4×10^5 HGF-independent human gastric cancer SNU638 cells were seeded and transfected with 300 nM of miRNA-34a or miRNA-34c, and then the number of cells was counted using trypan blue exclusion method for 0, 1, 2 and 3 days.
4×10^5 HGF-independent human gastric cancer SNU638 cells or 3×10^5 MKN45 cells were transfected with 300 nM of miRNA-34a (SEQ ID NO: 1) or miRNA-34c (SEQ ID NO: 2), and then the number of cells was counted using trypan blue exclusion method for 0, 1, 2 and 3 days.

[15] = tested on: relevant signaling pathway; assay: Expression of the relevant signaling pathway after miRNA transfection; type: cell-based; settings: human gastric cancer cell line; lower panel of FIG. 6C
IGSF1 [16] = assay: IGSF1 expression after miRNA transfection, lung cancer cells; type: cell-based, human; settings: lung cancer cell lines HCC827 and H1944
[17] = tested on: gastric cancer cell lines SNU638 and MKN45; assay: Apoptosis by MET inhibitor, trypan blue exclusion, gastric cancer cells; type: cell-based, human
cleaved caspase 3 = assay: Expression of cleaved caspase 3 after MET inhibitor treatment; type: cell-based, human; settings: treatment at each concentration; SNU638 and MKN45
[18] = MKN45 and SNU638, lower panel of FIG. 6B
[19] = cell line SNU638, real-time PCR, upper panel of FIG. 6B

Molecule: MET siRNA: siRNA against MET, SEQ ID NO: 5, 5′-AAAGATAAACCTCTCATAATG-3′ (AAAGAUAAACCUCUCAUAAUG; listed as RNA, chemistry not given here)
migration [1]: inhibited
invasion [2]: inhibited

Molecule: IGSF1 shRNA: shRNA against IGSF1, SEQ ID NO: 6, 5′-CAAAGAUGGAAGUGAAAUA UCUCUAUUUCACUUCCAUCUUUGUU-3′ (CAAAGAUGGAAGUGAAAUAUCUCUAUUUCACUUCCAUCUUUGUU; siRNA; shRNA hairpin, further chemistry not given here)
cell growth [3]: inhibited
number of colonies [4]: decreased
expression of MET (MET [5]): decreased
phosphorylation of MET (phosphorylation of MET): decreased
cell growth [6]: inhibited

Molecule: MET shRNA: shRNA against MET, SEQ ID NO: 7, 5′-GCCAGCCUGAAUGAUGACAUCUCUGUCAUCAUUCAGGCUGGCUU-3′ (siRNA; shRNA hairpin, further chemistry not given here)
cell growth [3]: inhibited
expression of IGSF1 (IGSF1 [7]): decreased
number of colonies [4]: decreased
cell growth [6]: inhibited
expression of IGSF1 (IGSF1 [8]): decreased

Molecule: miR-34c: Human miRNA-34c, SEQ ID NO: 2, AGGCAGUGUAGUUAGCUGAUUGC, purchased from Thermo Fisher Scientific (listed as RNA, chemistry not given here)
luciferase activity of IGSF1 (IGSF1 [9]): inhibited only in the wild type
expression of MMP9 (MMP9): decreased
expression of c-MET (MET [10]): inhibited
expression of MET (MET [10]): decreased
migration of cells [11]: inhibited
cell migration [11]: inhibited
expression of IGSF1 (IGSF1 [12]; [18]): inhibited
expression of IGSF1 (IGSF1 [12]; [19]): decreased
inhibition of the invasion of cells (gastric cancer cell line): about 50%
expression of pMET (pMET): decreased
luciferase activity of MET (MET [13]): inhibited only in the wild type
growth of cancer cells [14]: significantly inhibited
expression of the relevant signaling pathway [15]: decreased
expression of IGSF1 (IGSF1 [16]): decreased

expression of cleaved caspase 3 (cleaved caspase 3): increased
Molecule: Cc1[nH]c(/C=C2\C(=O)Nc3ccc(S(=O)(=O)Cc4c(Cl)cccc4Cl)cc32)c(C)c1C(=O)N1CCC[C@@H]1CN1CCCC1 [PHA665752]
induction of apoptosis ([17]; trypan blue exclusion, treatment at each concentration): induction of apoptosis
response to the MET inhibitor ([17]; with inhibition of the expression of IGSF1): increased

Molecule: miR-34a: Human miRNA-34a, SEQ ID NO: 1, UGGCAGUGUCUUAGCUGGUUGU, purchased from Thermo Fisher Scientific (listed as RNA, chemistry not given here)
luciferase activity of IGSF1 (IGSF1 [9]): inhibited only in the wild type
expression of MMP9 (MMP9): decreased
expression of c-MET (MET [10]): inhibited
expression of MET (MET [10]): decreased
migration of cells [11]: inhibited
cell migration [11]: inhibited
expression of IGSF1 (IGSF1 [12]; [18]): inhibited
expression of IGSF1 (IGSF1 [12]; [19]): decreased
inhibition of the invasion of cells (gastric cancer cell line): about 50%
expression of pMET (pMET): decreased
luciferase activity of MET (MET [13]): inhibited only in the wild type
growth of cancer cells [14]: significantly inhibited
expression of the relevant signaling pathway [15]: decreased
expression of IGSF1 (IGSF1 [16]): decreased
